Assay results published in patent US9765105B2, “Macrolide compound” (Pulike Biological Engineering, Inc., priority 2013, dated 2017).

What was measured:
[1] = system: Staphylococcus aureus CVCC26003; assay: in vitro susceptibility, MIC by mini broth dilution; type: cell-based; settings: strain CVCC26003
How it was run: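 MICs were determined by mini broth dilution under NCCLS standards in CAMHB, using revived S. aureus CVCC26003 subcultured 20 h at 35° C. Compounds were two-fold serially diluted in DMSO across 11 wells, with duplicate rows. Bacterial suspension was diluted 1:200 in medium before inoculation.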

[2] = system: Actinobacillus pleuropneumoniae CVCC262; assay: as above; type: cell-based; settings: strain CVCC262
How it was run: (§1)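 Following the NCCLS standard, each compound is serially halved in DMSO to give 11 concentrations, run in duplicate alongside a control well. Inocula come from colonies grown 20 h at 35° C and are diluted 1:200 into broth; MIC is taken by mini broth dilution.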

Haemophilus parasuis = assay: as above; type: cell-based
How it was run: as §1

[3] = system: Pasteurella multocida CVCC399; assay: as above; type: cell-based; settings: strain CVCC399
How it was run: as §1

[4] = system: Streptococcus equines CVCC556; assay: as above; type: cell-based; settings: strain CVCC556
How it was run: as §1

[5] = acute oral toxicity test, LD50 by improved karber method; settings: for LD50 at 7 days: both, Konmin, mouse, in vivo, po
[6] = system: Streptococcus pneumoniae CMCC 31203; assay: in vivo antibacterial test, survival of infected mice; set-up: species or system BALB/c mice; settings: mice infected i.p. with Streptococcus pneumoniae; 5 mg per kg subcutaneous for 3 consecutive days; observed until the seventh day

**Q.** For CCCN1C[C@H](C)[C@@H](O)[C@](C)(O)[C@@H](CC)OC(=O)[C@H](C)[C@@H](O[C@H]2C[C@@](C)(OC)[C@@H](O)[C@H](C)O2)[C@H](C)[C@@H](O[C@@H]2O[C@H](C)C[C@H](N(C)C)[C@H]2O)[C@](C)(O)C[C@H]1C [Gamithromycin, reference compound], which “MIC values, Staphylococcus aureus CVCC26003” value [1] is on record?
**A.** 0.25 ug/mi

**Q.** And the “MIC values, Actinobacillus pleuropneumoniae CVCC262” value [2]?
**A.** 0.25 ug/mi

**Q.** What about the “MIC values, Haemophilus parasuis” value (Haemophilus parasuis) of the same compound?
**A.** 0.25 ug/mi

**Q.** What about the “MIC values, Pasteurella multocida CVCC399” value [3] of the same compound?
**A.** 0.25 ug/mi

**Q.** What about the “MIC values, Streptococcus equines CVCC556” value [4] of the same compound?
**A.** 0.5 ug/mi

**Q.** What about the LD50 ([5]; per os, gavaged once, in 0.2% sodium carboxymethylcellulose, observed 7 days) of the same compound?
**A.** 2165.2 mg/kg

**Q.** With CCCCNC[C@]1(O)[C@H](C)OC(O[C@@H]2[C@@H](C)[C@@H](O[C@@H]3O[C@H](C)C[C@H](N(C)C)[C@H]3O)[C@](C)(O)C[C@@H](C)NC[C@@H](C)[C@H](O)[C@](C)(O)[C@H](CC)OC(=O)[C@@H]2C)C[C@@]1(C)OC (stereo partly drawn) [syzx-2, (2R,3S,4R,5S,8R,10R,11R,12S,13S,14R)-13-[(2,6-dideoxy-3-C-methyl-3-O-methyl-4-C-[(butylamino)methyl]-α-L-ribopyranosyl)oxy]-2-ethyl-3,4,10-trihydroxy-3,5,8,10,12,14-hexamethyl-11-[[3,4,6-trideoxy-3-(dimethylamino)-β-D-xylo-hexopyranosy]oxy]-1-oxa-7-azacyclopentadecan-15-one] as the compound, how does the “Animal survival rate (surviving/total animals)” value [6] read?
**A.** 8/10

**Q.** What about the LD50 at 7 days [5] of the same compound?
**A.** 2550 mg/kg

**Q.** Which “Animal survival rate (surviving/total animals)” value [6] does the source give for CC[C@@H]1OC(=O)[C@H](C)[C@H](OC2C[C@@](C)(OC)[C@](O)(CN(CC)CC)[C@H](C)O2)[C@@H](C)[C@@H](O[C@@H]2O[C@H](C)C[C@H](N(C)C)[C@H]2O)[C@](C)(O)C[C@@H](C)NC[C@@H](C)[C@H](O)[C@]1(C)O (stereo partly drawn) [syzx-3, (2R,3S,4R,5S,8R,10R,11R,12S,13S,14R)-13-[(2,6-dideoxy-3-C-methyl-3-O-methyl-4-C-[(diethylamino)methyl]-α-L-ribopyranosyl)oxy]-2-ethyl-3,4,10-trihydroxy-3,5,8,10,12,14-hexamethyl-11-[[3,4,6-trideoxy-3-(dimethylamino)-β-D-xylo-hexopyranosy]oxy]-1-oxa-7-azacyclopentadecan-15-one] here?
**A.** 8/10

**Q.** And the LD50 at 7 days [5]?
**A.** 2490 mg/kg

**Q.** Which “Animal survival rate (surviving/total animals)” value [6] does the source give for CC[C@@H]1OC(=O)[C@H](C)[C@H](OC2C[C@@](C)(OC)[C@](O)(CN3CCOCC3)[C@H](C)O2)[C@@H](C)[C@@H](O[C@@H]2O[C@H](C)C[C@H](N(C)C)[C@H]2O)[C@](C)(O)C[C@@H](C)NC[C@@H](C)[C@H](O)[C@]1(C)O (stereo partly drawn) [syzx-5, (2R,3S,4R,5S,8R,10R,11R,12S,13S,14R)-13-[(2,6-dideoxy-3-C-methyl-3-O-methyl-4-C-[(morpholinyl)methyl]-α-L-ribopyranosyl)oxy]-2-ethyl-3,4,10-trihydroxy-3,5,8,10,12,14-hexamethyl-11-[[3,4,6-trideoxy-3-(dimethylamino)-β-D-xylo-hexopyranosy]oxy]-1-oxa-7-azacyclopentadecan-15-one] here?
**A.** 7/10

**Q.** What about the LD50 at 7 days [5] of the same compound?
**A.** 2730 mg/kg

**Q.** For CC[C@@H]1OC(=O)[C@H](C)[C@H](OC2C[C@@](C)(OC)[C@](O)(CNC3CC3)[C@H](C)O2)[C@@H](C)[C@@H](O[C@@H]2O[C@H](C)C[C@H](N(C)C)[C@H]2O)[C@](C)(O)C[C@@H](C)NC[C@@H](C)[C@H](O)[C@]1(C)O (stereo partly drawn) [syzx-6, (2R,3S,4R,5S,8R,10R,11R,12S,13S,14R)-13-[(2,6-dideoxy-3-C-methyl-3-O-methyl-4-C-[(cyclopropylamino)methyl]-α-L-ribopyranosyl)oxy]-2-ethyl-3,4,10-trihydroxy-3,5,8,10,12,14-hexamethyl-11-[[3,4,6-trideoxy-3-(dimethylamino)-β-D-xylo-hexopyranosy]oxy]-1-oxa-7-azacyclopentadecan-15-one], which “Animal survival rate (surviving/total animals)” value [6] is on record?
**A.** 8/10

**Q.** What about the LD50 at 7 days [5] of the same compound?
**A.** 2610 mg/kg

**Q.** For CC[C@@H]1OC(=O)[C@H](C)[C@H](OC2C[C@@](C)(OC)[C@](O)(CNC3CCCC3)[C@H](C)O2)[C@@H](C)[C@@H](O[C@@H]2O[C@H](C)C[C@H](N(C)C)[C@H]2O)[C@](C)(O)C[C@@H](C)NC[C@@H](C)[C@H](O)[C@]1(C)O (stereo partly drawn) [syzx-30, (2R,3S,4R,5S,8R,10R,11R,12S,13S,14R)-13-[(2,6-dideoxy-3-C-methyl-3-O-methyl-4-C-[(cyclopentylamino)-methyl]-α-L-ribopyranosyl)oxy]-2-ethyl-3,4,10-trihydroxy-3,5,8,10,12,14-hexamethyl-11-[[3,4,6-trideoxy-3-(dimethylamino)-β-D-xylo-hexopyranosy]oxy]-1-oxa-7-azacyclopentadecan-15-one], which “Animal survival rate (surviving/total animals)” value [6] is on record?
**A.** 8/10

**Q.** Which results are given for CC[C@@H]1OC(=O)[C@H](C)[C@H](OC2C[C@@](C)(OC)[C@](O)(CNCc3cccc(OC)c3)[C@H](C)O2)[C@@H](C)[C@@H](O[C@@H]2O[C@H](C)C[C@H](N(C)C)[C@H]2O)[C@](C)(O)C[C@@H](C)NC[C@@H](C)[C@H](O)[C@]1(C)O (stereo partly drawn) [syzx-35, (2R,3S,4R,5S,8R,10R,11R,12S,13S,14R)-13-[(2,6-dideoxy-3-C-methyl-3-O-methyl-4-C-[[3-methoxybenzyl-amino]-methyl]-α-L-ribopyranosyl)oxy]-2-ethyl-3,4,10-trihydroxy-3,5,8,10,12,14-hexamethyl-11-[[3,4,6-trideoxy-3-(dimethylamino)-β-D-xylo-hexopyranosy]oxy]-1-oxa-7-azacyclopentadecan-15-one]?
**A.** Animal survival rate [6]: 70%; Animal survival rate (surviving/total animals) [6]: 7/10

**Q.** For CCCCCNC[C@]1(O)[C@H](C)OC(O[C@@H]2[C@@H](C)[C@@H](O[C@@H]3O[C@H](C)C[C@H](N(C)C)[C@H]3O)[C@](C)(O)C[C@@H](C)NC[C@@H](C)[C@H](O)[C@](C)(O)[C@H](CC)OC(=O)[C@@H]2C)C[C@@]1(C)OC (stereo partly drawn) [syzx-47, (2R,3S,4R,5S,8R,10R,11R,12S,13S,14R)-13-[(2,6-dideoxy-3-C-methyl-3-O-methyl-4-C-[[n-pentyl-amino]-methyl]-α-L-ribopyranosyl)oxy]-2-ethyl-3,4,10-trihydroxy-3,5,8,10,12,14-hexamethyl-11-[[3,4,6-trideoxy-3-(dimethylamino)-β-D-xylo-hexopyranosy]oxy]-1-oxa-7-azacyclopentadecan-15-one], which “Animal survival rate (surviving/total animals)” value [6] is on record?
**A.** 9/10

**Q.** Which “Animal survival rate (surviving/total animals)” value [6] does the source give for CC[C@@H]1OC(=O)[C@H](C)[C@H](OC2C[C@@](C)(OC)[C@](O)(CNCc3cnc(C)cn3)[C@H](C)O2)[C@@H](C)[C@@H](O[C@@H]2O[C@H](C)C[C@H](N(C)C)[C@H]2O)[C@](C)(O)C[C@@H](C)NC[C@@H](C)[C@H](O)[C@]1(C)O (stereo partly drawn) [syzx-65, (2R,3S,4R,5S,8R,10R,11R,12S,13S,14R)-13-[(2,6-dideoxy-3-C-methyl-3-O-methyl-4-C-{[(5-methyl-pyrazin-2-yl-methyl)-amino]-methyl}-α-L-ribopyranosyl)oxy]-2-ethyl-3,4,10-trihydroxy-3,5,8,10,12,14-hexamethyl-11-[[3,4,6-trideoxy-3-(dimethylamino)-β-D-xylo-hexopyranosy]oxy]-1-oxa-7-azacyclopentadecan-15-one] here?
**A.** 9/10

**Q.** For CC[C@@H]1OC(=O)[C@H](C)[C@H](OC2C[C@@](C)(OC)[C@](O)(CNCCCOC)[C@H](C)O2)[C@@H](C)[C@@H](O[C@@H]2O[C@H](C)C[C@H](N(C)C)[C@H]2O)[C@](C)(O)C[C@@H](C)NC[C@@H](C)[C@H](O)[C@]1(C)O (stereo partly shown) [syzx-66], which “Animal survival rate (surviving/total animals)” value [6] is on record?
**A.** 8/10

**Q.** With CC[C@@H]1OC(=O)[C@H](C)[C@H](OC2C[C@@](C)(OC)[C@](O)(CNCC3CCCCC3)[C@H](C)O2)[C@@H](C)[C@@H](O[C@@H]2O[C@H](C)C[C@H](N(C)C)[C@H]2O)[C@](C)(O)C[C@@H](C)NC[C@@H](C)[C@H](O)[C@]1(C)O (stereo partly shown) [syzx-67] as the compound, how does the “Animal survival rate (surviving/total animals)” value [6] read?
**A.** 8/10

**Q.** Which “MIC values, Staphylococcus aureus CVCC26003” value [1] does the source give for CCCN1C[C@H](C)[C@@H](O)[C@](C)(O)[C@@H](CC)OC(=O)[C@H](C)[C@@H](O[C@H]2C[C@@](C)(OC)[C@](O)(CN(C)CCO)[C@H](C)O2)[C@H](C)[C@@H](O[C@@H]2O[C@H](C)C[C@H](N(C)C)[C@H]2O)[C@](C)(O)C[C@H]1C [syzx-239] here?
**A.** 4 ug/mi

**Q.** And the “MIC values, Actinobacillus pleuropneumoniae CVCC262” value [2]?
**A.** 4 ug/mi

**Q.** And the “MIC values, Haemophilus parasuis” value (Haemophilus parasuis)?
**A.** 2 ug/mi

**Q.** And the “MIC values, Pasteurella multocida CVCC399” value [3]?
**A.** 8 ug/mi

**Q.** And the “MIC values, Streptococcus equines CVCC556” value [4]?
**A.** 0.25 ug/mi

**Q.** For “(2R,3S,4R,5S,8R,10R,11R,12S,13S,14R)-13-[(2,6-dideoxy-3-C-methyl-3-O-methyl-4-C-[(thienylformyloxymethyl-2-amino)-methyl]-α-L-ribopyranosyl)oxy]-2-ethyl-3,4,10-trihydroxy-3,5,8,10,12,14-hexamethyl-11-[[3,4,6-trideoxy-3-(dimethylamino)-β-D-xylo-hexopyranosy]oxy]-1-oxa-7-azacyclopentadecan-15-one [syzx-77]”, which “MIC values, Staphylococcus aureus CVCC26003” value [1] is on record?
**A.** 0.25 ug/mi

**Q.** And the “MIC values, Actinobacillus pleuropneumoniae CVCC262” value [2]?
**A.** 16 ug/mi

**Q.** And the “MIC values, Haemophilus parasuis” value (Haemophilus parasuis)?
**A.** 0.25 ug/mi

**Q.** What about the “MIC values, Pasteurella multocida CVCC399” value [3] of the same compound?
**A.** 0.5 ug/mi

**Q.** And the “MIC values, Streptococcus equines CVCC556” value [4]?
**A.** 0.5 ug/mi
